# Experimental data reported in patent publication US10085449B2, “N-[1-((6-chloropyridin-3-yl)methyl)pyridin-2(1H)-ylidene]-2,2,2- trifluoroacetamide for control of agricultural/horticultural pests” (priority 2010, dated 2018).
# Where two headings read alike, the source gives them in different places.
# Assays:
# small brown planthopper [1] = assay: whole plant or invertebrate; assay type: in vivo; details: Laodelphax striatellus, in Triticum aestivum, 96 h
# Summary of the method: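 Roots of 48-h wheat seedlings took up compound in 10% acetone/water for 72 h, then ten second-instar larvae were released per seedling and held at 25 °C (16 h light/8 h dark). Mortality counted four days after release; two replications.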
# greenhouse whitefly = assay: whole plant or invertebrate; assay type: in vivo; details: Cucumis sativus, foliar, 336 h
# Description: Adult greenhouse whiteflies were released onto cucumber plants grown in pots, and allowed to laid eggs overnight. One day after the start of oviposition, the adults were removed, and the plants and eggs were held in an incubation chamber at 25° C. (16-hour period of light, 8-hour dark period). Three days after the end of oviposition, leaf discs 2.0 cm in diameter were cut from the cucumber plants and, after confirming oviposition thereon, the leaf discs were sprayed with solutions of the inventive compounds at a predetermined concentration prepared to 50% acetone/water (containing 0.05% Tween 20). After spraying, the treated leaf discs were held in an incubation chamber at 25° C. (16-hour period of light, 8-hour dark period). Fourteen days after spraying, the numbers of live and dead insects were counted, and the mortality was calculated from the following formula. This was a two-replication test. Mortality (%)=[(number of oviposited eggs−number of live insects)/number of oviposited eggs]×100
# small brown planthopper [2] = assay: whole plant or invertebrate; assay type: in vivo; details: Laodelphax striatellus, 72 h
# Summary of the method: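 Rice seedlings in pots soil-drenched with compound at a set concentration in 10% acetone/water; ten second-instar larvae released per seedling 3 days later. Held at 25° C. (16 h light/8 h dark) and scored live/dead 3 days after release. Mortality (%) = dead/(live+dead)×100; two replications.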
# [3] = tested on: brown rice planthopper having a low susceptibility to insecticides; assay type: in vivo; set-up: key to Brown rice planthopper, Kumamoto low susceptibility (rice soil drenching), effect: mortality %, dead/(live+dead) ×100; details: for Mortality: all the lines (susceptible line, field-collected lines I and II); for Insecticidal effects (mortality), brown rice planthopper second-instar larvae: soil drenching treatment
# [4] = tested on: house fly crude enzyme extract; assay: In vitro metabolic test using house fly crude enzyme extract; assay type: in vitro ADME; details: house fly crude enzyme extract with NADP+ regenerating system, 25° C., 40 hours, LC/MS
# Description: As mentioned in Pest Management Science, 59(3), 347-352 (2003) and the Journal of Pesticide Science, 29(2), 110-116 (2004), imidacloprid is known to be inactivated by incurring oxidative metabolism, which is thought to be one mechanism of acquiring resistance to this agent. The following experiment was carried out to confirm the effects in pests which have acquired such resistance.
# An amount of 10 mL of a potassium phosphate buffer solution (pH 7.4, containing 1 mM EDTA) was added to adult house flies (0.645 g), and the flies were thoroughly homogenized in a Physcotron (Niti-On Medical and Physical Instruments Manufacturing Co.). The homogenate was then centrifuged at 10,000 g for 15 minutes. The resulting supernatant was additionally centrifuged at 100,000 g for 60 minutes, giving a precipitate. The precipitate was dissolved in 1 mL of a potassium phosphate buffer, and the resulting solution was used as the crude enzyme extract. The enzyme extraction operations were all carried out on ice or at 4° C.
# The reagents were mixed in the following proportions within a 1.5 mL tube, and the reaction was effected at 25° C. for 40 hours. Following the reaction, 1 mL of acetone was added and the mixture was stirred, following which the precipitate that formed was centrifuged at 12,000 rpm for 5 minutes. […]
# [5] = read-out: Insecticidal effects (mortality), small brown planthopper second-instar larvae
# [6] = soil, read-out: Insecticidal effects (mortality), small brown planthopper second-instar larvae
structure (smiles),measurement,setting,value
"O=C(N=c1ccccn1Cc1ccc(Cl)nc1)C(F)(F)F [Compound 212, N-[1-((6-chloropyridin-3-yl)methyl)pyridin-2(1H)-ylidene]-2,2,2-trifluoroacetamide]",mortality at 20 µg/seedling,small brown planthopper [1],≥ 80%
same,mortality at 0.0078 mg/seedling,small brown planthopper [1]; [5],50%
same,mortality at 0.016 mg/seedling,small brown planthopper [1]; [5],50%
same,mortality at 0.031 mg/seedling,small brown planthopper [1]; [5],100%
same,mortality at 0.063 mg/seedling,small brown planthopper [1]; [5],100%
same,mortality at 0.125 mg/seedling,small brown planthopper [1]; [5],100%
same,mortality at 0.25 mg/seedling,small brown planthopper [1]; [5],100%
same,mortality at 0.5 mg/seedling,small brown planthopper [1]; [5],100%
same,mortality at 2 mg/seedling,small brown planthopper [1]; [5],100%
same,mortality at 20 mg/seedling,small brown planthopper [1]; [5],100%
same,mortality at 100 ppm,greenhouse whitefly,≥ 80%
same,pest or weed control at 0.002 mg/pot,"small brown planthopper [2]; rice soil drenching, 0.002 mg/pot (Table 13), read-out: Small brown planthopper (rice soil drenching), effect",85%
same,pest or weed control at 0.005 mg/pot,"small brown planthopper [2]; rice soil drenching, 0.005 mg/pot (Table 13), read-out: Small brown planthopper (rice soil drenching), effect",95%
same,pest or weed control at 0.01 mg/pot,"small brown planthopper [2]; rice soil drenching, 0.01 mg/pot (Table 13), read-out: Small brown planthopper (rice soil drenching), effect",100%
same,pest or weed control at 0.05 mg/pot,"small brown planthopper [2]; rice soil drenching, 0.05 mg/pot (Table 13), read-out: Small brown planthopper (rice soil drenching), effect",100%
same,mortality at 0.005 mg/seedling,small brown planthopper [2]; soil,95%
same,mortality at 0.05 mg/seedling,small brown planthopper [2]; soil,≥ 80%
same,mortality at 0.002 mg/pot,small brown planthopper [2]; [6],85%
same,mortality at 0.005 mg/pot,small brown planthopper [2]; [6],95%
same,mortality at 0.01 mg/pot,small brown planthopper [2]; [6],100%
same,mortality at 0.05 mg/pot,small brown planthopper [2]; [6],100%
same,Mortality,[3]; 0.005 mg/seedling soil drenching,at least 90%
same,Mortality,[3]; 0.05 mg/seedling soil drenching,100%
same,"Brown rice planthopper, Kumamoto low susceptibility (rice soil drenching), effect",[3]; 0.005 mg/pot,90
same,"Brown rice planthopper, Kumamoto low susceptibility (rice soil drenching), effect",[3]; 0.05 mg/pot,100
same,"Insecticidal effects (mortality), brown rice planthopper second-instar larvae",[3]; 0.02 mg/pot,100
same,"Insecticidal effects (mortality), brown rice planthopper second-instar larvae",[3]; 0.05 mg/pot,100
same,Sum of the surface area percentages for the metabolites,[4],0.08%
